{"source": "patent US6432943B1", "about": "“Method for treating sexual dysfunction” (Eli Lilly and Company, priority 1997, dated 2002)", "key": {"[1]": {"test": "detection of radiolabelled compound in saliva", "assay_type": "in vivo", "experimental": "For example, in the treatment of adult humans, dosages of from about 0.25 to 50 mg, preferably from 1 to 30 mg, and most preferably 1 to 20 mg per day may be used. A once a day dosage is normally sufficient, although divided doses may be administered. For treatment of cognitive dysfunction, a dose range of from 1 to 30 mg, preferably 1 to 20 mg per day is suitable."}, "[2]": {"tested_on": "rats", "test": "in vivo animal observation after overdose", "design": "species or system rat"}, "[3]": {"tested_on": "muscarinic cholinergic receptor", "settings": "results of pharmacological studies"}, "[4]": {"tested_on": "clinical subjects", "test": "clinical observation of pupil response", "settings": "pupilary dialation was expected"}}}
{"smiles": "Cc1cc2c(s1)Nc1ccccc1N=C2N1CCN(C)CC1", "note": "[2-methyl-4-(4-methyl-1-piperazinyl)-10H-thieno-[2,3-b][1,5]benzodiazepine]", "values": [{"measurement": "detection in saliva", "setting": "[1]", "result": "can be detected in the saliva"}]}
{"smiles": "Cc1cc2c(s1)Nc1ccccc1N=C2N1CCN(C)CC1", "values": [{"measurement": "observation in rats exposed to an overdose", "setting": "[2]", "result": "significant salivation"}, {"measurement": "muscarinic cholinergic receptor activity", "setting": "[3]", "result": "has muscarinic cholinergic receptor activity"}, {"measurement": "pupil response in clinical subjects", "setting": "[4]", "result": "pupilary constriction"}]}
